Measurements published in ChEMBL document CHEMBL3244278, “Cerebrovasodilatation through selective inhibition of the enzyme carbonic anhydrase. 1. Substituted benzenedisulfonamides” (J Med Chem, 1978).
The source made the active and inactive calls. The calls are words filed in the database; no cut-off is given here.

Legend:
[1] = Dissociation constant, pKa of the compound; assay type: physicochemical
[2] = Protein binding in plasma (unknown origin); assay type: ADME, cell-free; settings: unidentified, read-out: PPB (converted)
[3] = test system: Mus musculus; assay: Anticonvulsant activity in mouse assessed as protection against electroshock-induced maximal seizure effect up to 100 mg/kg, po administered via gavage 2 hrs prior to electroshock stimulation; assay type: functional, organism-based; set-up: dose 100 mg/kg
[4] = test system: Mus musculus; assay: Anticonvulsant activity in po dosed mouse assessed as protection against electroshock-induced maximal seizure effect administered via gavage 2 hrs prior to electroshock stimulation; assay type: functional; settings: for ED50: Mus musculus, po
[5] = test system: Rattus norvegicus; assay: Induction of diuretic activity in po dosed rat assessed as increase in urine output after 4 hrs; assay type: organism-based
[6] = Octanol-water partition coefficient, log P of the compound; assay type: physicochemical
[7] = Elimination half life in iv dosed dog plasma; assay type: ADME, organism-based, Canis lupus familiaris; settings: read-out: beta t1/2 (converted)

Row | SMILES | Activity [3] | other results
1 | NS(=O)(=O)c1nnc(NS(=O)(=O)c2ccccc2)s1 [BENZOLAMIDE] | – | pKa [1]: 3.2; fraction unbound [2]: 0.08
2 | NS(=O)(=O)c1ccc(S(=O)(=O)N2CCC3(CC2)NC(=O)NC3=O)cc1Cl | inactive | –
3 | COC1CCN(S(=O)(=O)c2cc(Cl)c(S(N)(=O)=O)cc2C)CC1 | inactive | –
4 | NS(=O)(=O)c1cc(Cl)c(S(=O)(=O)N2CCOCC2)c(Cl)c1 | inactive | –
5 | NS(=O)(=O)c1ccc(S(=O)(=O)N2CCC(O)(c3ccccn3)CC2)cc1 | – | ED50 [4]: 40 mg/kg
6 | NS(=O)(=O)c1ccc(S(=O)(=O)N2CCOCC2)cc1C(F)(F)F | inactive | –
7 | CC(=O)Nc1nnc(S(N)(=O)=O)s1 [ACETAZOLAMIDE] | – | Activity [4]: 36 mg/kg; ED50 [5]: 5 mg/kg
8 | COC1CCN(S(=O)(=O)c2cc(C)c(S(N)(=O)=O)c(C)c2)CC1 | inactive | –
9 | COC1CCN(S(=O)(=O)c2ccc(S(N)(=O)=O)c(C(F)(F)F)c2)CC1 | inactive | –
10 | CC(=O)C1CCN(S(=O)(=O)c2ccc(S(N)(=O)=O)cc2)CC1 | inactive | –
11 | COC1CCN(S(=O)(=O)c2ccc(S(N)(=O)=O)c(Cl)c2)CC1 [UK-12130] | – | logP [6]: 0.62; half-life [7]: 3 h
12 | CN1CN(c2ccccc2)C2(CCN(S(=O)(=O)c3ccc(S(N)(=O)=O)cc3)CC2)C1=O | – | ED50 [4]: > 40 mg/kg
13 | COC1CCN(S(=O)(=O)c2c(Cl)cc(S(N)(=O)=O)cc2Cl)CC1 | inactive | –
14 | COC1(C)CCN(S(=O)(=O)c2ccc(S(N)(=O)=O)cc2)CC1 | inactive | –
